In patent US5073571A, “Method of inhibiting virus” (priority 1989, dated 1991):

Legend:
HIV-1 [1] = test: HIV-1 replication in H9 cells, reverse transcriptase activity of culture supernatants (acute infection); type: cell-based, HIV-1 strain HXB2gptX (in human H9 cells); details: for relative efficacy on HIV-1 production: 1-100 μM, ranking among the four analogs
Method: (§1) Media was changed every other day. The effect of these compounds on virus production was determined by measuring the reverse transcriptase (RT) activity in samples of the cell culture supernatants. […] Negative controls consisted of no additions or 0.1ethanol. The results of duplicate assays were averaged. Panel B -Concentration-dependent effects of 13-oxamyristic acid on HIV-1 replication as measured by RT activity (percent of untreated control) and the presence of p24 antigen (ng/ml determined by ELISA). Error bars indicate the S.E.M. of assays done in triplicate. Panel C - The effect of 13-oxamyristic acid on syncytia formation using an arbitrary scale described under Materials and Methods, Example 16, below. Panel D - Toxicity of 13-oxamyristic acid determined by viable cell count (trypan blue exclusion), as well as by [^3 H]thymidine and [^3 H]leucine labeling (see under Materials and Methods, Example 16, below). The incorporation of these radiolabeled compounds was determined in the total cell population contained in a well after 10 days of treatment with the analog. Duplicate assays were performed and the results averaged.
Assay for HIV-1 Replication. The human T-lymphoid cell line, H9, was provided by R. D. Gallo (NIH) and maintained in RPMI-1640 medium supplemented with 10% fetal bovine serum, 100 IU/mL penicillin, 100 μg/mL streptomycin an 2 mM L-glutamine. HIV-1 strain HXB2gptX [Fisher et al., Science 233, 655-659 (1986)] was obtained from cultures of chronically infected H9 cells [Popovic et al., Science 224, 497-500 (1984)]< filtered through 0.2 μm Millipore filters and stored at -90° C. The titer of the virus stock was determined by serial dilution using syncytia formation and reverse transcriptase activity (see below) as a measure of infectivity in H9 cells.
Cell-free HIV-1, at a multiplicity of infection (m.o.i.) equal to 0.01-0.001, was added to 10^7 H9 cells which had been pretreated with 2 μg/ml Polybrene® (hexadimethrene bromide, Sigma). Following a 30 min incubation at 37° C. to absorb the virus, 4 × 10^5 of virus treated cells in 1 mL of fresh medium (plus 10% fetal calf serum, pencillin and streptomycin) were added to each well of a 24 well tissue culture plate (Falcon), and mixed with an equal volume of serum-free RPMI-1640 medium containing analog. Medium containing 5% serum, antibiotics ± analog was replaced every other day. Each of the heteroatom substituted analogs was prepared as a 100 mM stock solution in 100% ethanol and stored at -90° C. prior to dilution in the serum-free RPMI-1640 medium. The maximum final ethanol concentration reached after dilution of the different analogs in media was 0.1%. Therefore, uninfected and infected H9 cells, treated with or without 0.1% ethanol, were used as controls for each test. Ethanol alone had no demonstrable effects.
Except for the preliminary screening of the various (coded) analogs which was done twice, all other assays were performed at least three times. Samples were tested in duplicate each time the assay was repeated.
Virus Assays. Virus was quantitated using supernatant solutions of cells harvested on day 8 (m.o.i.=0.01) or day 10 (m.o.i.=0.001) of treatment. Virions were concentrated 10 fold by precipitation of culture supernatants with a solution of polyethylene glycol (30% in 150 mM NaCl, 0.1 mM phenylmethylsulfonylfluoride). The precipitates were solubilized and virus-associated reverse transcriptase (RT) activity measured by [^32 P]TTP incorporation using a poly(rA)-oligo(dT) template [Poiesz et al., Proc. Natl. Acad. Sci. USA 77, 7415-7419 (1980)]. Cell supernatants were also tested for virus-specific antigen using a p24 ELISA from Dupont (Wilmington, DE). This assay can detect as little as 0.03 ng of antigen/mL (antigen=p24, the major structural nucleocapsid protein of HIV-1, as well as its precursor, Pr55^gag).
HIV-1 Replication in H9 Cells is Inhibited by Treatment with Heteroatom-Containing Analogs of Myristate. […]

H9 cells = test: Toxicity in HIV-1 infected H9 cells: viable cell count by trypan blue exclusion; type: cell-based, human
Method: as §1
Toxicity Studies. These analyses were conducted for both assay systems. Cell survival was determined by trypan-blue exclusion. The number of unstained cells/mL in the treated cultures was divided by the number of unstained cells/mL in the untreated control cultures and expressed as percent control. Protein synthesis was measured at the end of the treatment periods by metabolic labeling for 4 hrs with L-[4,5^3 H(N)]-leucine (2 μCi/mL media, specific activity =140 Ci/mmol). All cells contained in a given well of a 24 well plate were recovered by scraping, the protein precipitated by TCA (final concentration =10%) and the solution subsequently incubated at 100° C. for 5 min prior to passage over glass fiber filters (Whatman). In the case of the H-9 assay, treated or untreated cells were pulsed labeled at the conclusion of the 10 day incubation. […] DNA synthesis was assessed on day 10 of the H9 assay. […]

HIV-1 [2] = test: Syncytia assay in HIV-1 infected H9 cells; type: cell-based, HIV-1 strain HXB2gptX (in human H9 cells); details: H9 cells
Method: as §1
Assay for HIV-1 Replication. The human T-lymphoid cell line, H9, was provided by R. D. Gallo (NIH) and maintained in RPMI-1640 medium supplemented with 10% fetal bovine serum, 100 IU/mL penicillin, 100 μg/mL streptomycin an 2 mM L-glutamine. […] The titer of the virus stock was determined by serial dilution using syncytia formation and reverse transcriptase activity (see below) as a measure of infectivity in H9 cells. […]
Syncytia Assay. The number of syncytia in each well was determined by microscopic examination on days 4-6 (infected, untreated control cultures), 8 and 10 (analog or decanoate treated cultures). The average number of multi-nucleated giant cells counted per 10 low-power fields (LPF =40 times magnification) was assigned to an arbitrary syncytia scale: 0=<1/LPF, 1+=1-4/LPF, 2+=5-7/LPF, 3+= 8-10/LPF, 4+=>10/LPF. By this criteria uninfected, control cells had zero synctia, and infected, untreated H9 cells were consistently scored as 4+.

[3] = Human immunodeficiency virus 1, H9, 240 h, read-out: reverse transcriptase (RT) activity

## COCCCCCCCCCCCC(=O)O [13-oxamyristate, 12-(Methoxy)dodecanoic acid]
HIV-1 [1]; 0.1 μM to 100 μM, H9 cells
  dose dependence of reduction in reverse transcriptase activity: dose dependent reduction in reverse transcriptase activity
HIV-1 [1]; 1-10 μM, 10 day incubation, HIV-1 infected H9 cells
  effect on reverse transcriptase activity: More pronounced effects
HIV-1 [1]; H9 cells
  relative efficacy on HIV-1 production: greatest effects
HIV-1 [1]; H9 cells, listed as 13-oxamyristic acid
  relative efficacy on HIV-1 production: most effective
HIV-1 [1]; 20-40 μM range, H9 cells
  reduction in virus replication (reverse transcriptase): greater than 90%
HIV-1 [1]; [3]
  activity at 10 µM: 20%
  activity at 100 µM: < 10%
H9 cells; 20 to 40 μM, 10 day treatment
  viable cell count in HIV-1 infected H9 cultures relative to untreated controls: equivalent to that of untreated controls
H9 cells; 10 day treatment, trypan blue exclusion
  viable cell count in HIV-1 infected H9 cultures: an increase in viable cell count was observed
H9 cells; HIV-1 infected H9 cells, suggested by viable cell number
  direct toxicity to the cells: not directly toxic to the cells
HIV-1 [2]; 40-80 μM vs 5 μM AZT
  reduction in syncytia compared with AZT: comparable to that obtained with 5 μM AZT
HIV-1 [2]; FIG. 1C
  syncytia reduction compared with RT and p24 assays: paralleled the results of the reverse transcriptase and p24 ELISA assays
